Data taken from patent US12600732B2, “Bifunctional compounds for degrading BTK via ubiquitin proteosome pathway” (NURIX THERAPEUTICS, INC., priority 2019, dated 2026).
Where two headings read alike, the source gives them in different places.

Assays:
BTK = molecular target: T1, BTK (Mus musculus, UniProt P35991); experiment: In vivo degradation of BTK in mouse PD experiments with oral dosing
T1 construct: from tissue; host or cells: mouse blood B cells / splenocytes (CD-1 or BALB/c)
Summary of the method: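 BTK in blood or splenocytes read by flow cytometry (or HTRF), degradation taken as B-cell minus T-cell BTK MFI versus vehicle. Mice (CD-1 or BALB/c) received compound orally, initially 90 mg/kg for 6 h, then lower doses and longer time points.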

[1] = tested on: B cell receptor (BCR) signaling; experiment: B cell activation assay (flow cytometry), mouse B cells; format: cell-based; conditions: treatment 4 h, IgM stimulation 18 h
Method: Compound was present throughout the stimulation. Cells were stained with Live/Dead dye (Fisher L34976) and then fluorophore-conjugated antibodies against CD20 (Biolegend 302330), CD3 (BD Pharmingen 557705), CD86 (Biolegend 305416) and CD69 (Biolegend 310906). Stained cells were fixed in PFA and run on an Attune N×T Acoustic Focusing Flow Cytometer (Thermo-Fisher A29004), and data was analyzed using FlowJo (v10.5.3) and GraphPad Prism (v7.00) software. Single live lymphocytes were gated for B cells (CD20+CD3−) and T cells (CD3+CD20−), and the geometric mean fluorescence intensity (MFI) of CD86 and CD69 was calculated for each population. The MFI of the unstimulated sample was used to quantify baseline activation.
This example evaluates whether CTM treatment affects B cell receptor (BCR) signaling. BTK is activated downstream of the B cell receptor and leads to upregulation of activation markers CD86 and CD69 on the surface of B cells.

TMD8 cells = experiment: Cell viability assay (CellTiter-Glo), TMD8 cells; conditions: for EC50: Homo sapiens, TMD8, 72 h; for EMAX (% viable cells): TMD8 cells, treatment time 72 h
Method: (§2) Cell viability was determined using CellTiter-Glo 2.0 Luminescent Cell Viability Assay (Promega, G9242), which quantitates the amount of ATP present as a proxy for the number of viable cells in culture. Cells were plated with densities between 2000-4000 cells per well in 96-well plates. […] CellTiter-Glo reagent was added to cells at a dilution of 1:20, and the plate was incubated ten minutes at room temperature prior to reading the luminescence signal using an EnVision plate reader. Controls included cells treated with DMSO and wells that contained no cells, only media. Background luminescence signal was determined by control wells containing no cells, only media, and was then subtracted from all sample wells. Luminescence values were then normalized to DMSO-treated wells and reported at proportion viable cells.
Here, the ability of CTMs to affect viability in BTK-dependent cell lines was assessed.

BTK C481S = BTK C481S (Homo sapiens, UniProt Q06187, C481S); experiment: BTK degradation (Total BTK HTRF) in TMD8 cells expressing BTK-C481S; format: cell-based; set-up: endogenous in cells; host or cells: TMD8 BTK-C481S (clone2C3), Cas9 RNP knock-in; conditions: TMD8 BTK-C481S (clone2C3) cells, treatment time 4 h
Method: BTK levels were determined using Cisbio Total-BTK HTRF (Homologous Time-Resolved Fluorescence) kit (63ADK064PEG) according to the manufacturer's protocol. Briefly, cells were incubated in 1× supplied lysis buffer for 30 minutes. In an opaque white low volume 96-well plate (Cisbio, 66PL96005), cell lysate was combined with two different specific BTK antibodies, one conjugated with Eu^3+-Cryptate FRET donor and one conjugated with d2 FRET acceptor. Assay controls include wells containing cell lysate with only the Eu^3+-Cryptate FRET donor antibody and wells containing both HTRF antibodies and lysis buffer without cells or control lysate provided by Cisbio. HTRF ratio was calculated as (acceptor signal at 665 nm/donor signal at 620 nm)×10^4. Background HTRF levels were determined from the control well containing the donor, but no acceptor, antibody. Background HTRF levels were subtracted from all samples. Readouts were reported as HTRF levels relative to HTRF levels of DMSO-treated cells. Four-parameter non-linear regressions were performed in GraphPad Prism 7.02 to obtain DC50 values.
BTK Degradation (Total BTK HTRF) at Four Hours in TMD8 Cells Expressing BTK-C481S
This example evaluates the potency of CTM in degrading […]. The BTK binding moieties utilized in CTMs bind to the BTK active site. This example evaluates whether the active site mutation C481S affects CTM-induced degradation of BTK.

TMD8 C481S cells = experiment: Cell viability assay (CellTiter-Glo), TMD8 C481S cells; conditions: for EC50: Homo sapiens, TMD8, 72 h; for EMAX (% viable cells): TMD8 C481S cells, treatment time 72 h
Method: as §2

[2] = PK data for BTK CTMs (in vivo plasma concentrations); conditions: Mouse Balb/c; for Vd: read-out: Volume of Distribution
Text: The present example evaluates in vivo plasma concentrations of BTK CTMs to develop PK-PD-efficacy relationship and predict human exposure.

primary human T cells [3] = experiment: T cell activation assay, CD25 and CD69 staining (flow cytometry); format: cell-based; conditions: fold-change of response relative to baseline
Method: (§1) This example evaluates whether CTMs with IMiD activity affect T cell activation. […] These assays were performed to assess whether BTK CTMs with and without IMiD activity affected activation of primary human T cells after stimulation of the T cell receptor with anti-CD3/ati-CD28 stimulation. T cell activation was measured by IL-2 secretion (ELISA assay) and upregulation of activation markers CD25 and CD69 on the surface of T cells (flow cytometry). Data are presented as the fold-change of response relative to baseline (stimulation with anti-CD3/anti-CD28 stimulation in the absence of compound).

primary human T cells [4] = experiment: T cell activation assay, IL-2 secretion (ELISA); format: cell-based
Method: as §1

[5] = oral dose 30 mg/kg, 24 h, splenocytes, HTRF
[6] = oral dose 30 mg/kg, 24 h, blood, flow cytometry
[7] = 1.4 nM, fold-change of response relative to baseline
[8] = 37 nM, fold-change of response relative to baseline
[9] = 333 nM, fold-change of response relative to baseline (stimulation without compound)

Row | Compound | % BTK Remaining (BTK; [5]) | EC50 (TMD8 cells) | EMAX (% viable cells) (TMD8 cells) | DC50 (BTK C481S) | EC50 (TMD8 C481S cells) | EMAX (% viable cells) (TMD8 C481S cells) | other results
1 | CN1CCN([C@@H]2CCCN(c3cnc(C(N)=O)c(Nc4ccc(C5(C)CCN(C[C@H]6CCN(c7ccc8c(c7)C(=O)N(C7CCC(=O)NC7=O)C8=O)C6)CC5)cc4)n3)C2)C1=O (stereo partly shown) [Compound 71] | 27% | – | – | – | – | – | EC50 ([1]; read-out: CD69 EC50): 1 nM; EC50 ([1]; read-out: CD86 EC50): 2 nM
2 | CN1CCN([C@H]2CCCN(c3cnc(C(N)=O)c(Nc4ccc(C5CCN(CC6CCN(c7ccc(NC8CCC(=O)NC8=O)cn7)CC6)CC5)cc4)n3)C2)C1=O (stereo partly shown) [Compound 129] | – | 3.17 nM | 16% | 5.3 nM | 4.36 nM | 14% | % BTK Remaining (BTK; [6]): 16%
3 | CN1CCN([C@@H]2CCCN(c3cnc(C(N)=O)c(Nc4ccc(C5CCN(CC6CCN(c7ccc8c(c7)n(C)c(=O)n8C7CCC(=O)NC7=O)CC6)CC5)cc4)n3)C2)C1=O (stereo partly shown) [Compound 156] | – | – | – | 0.4 nM | – | – | –
4 | NC(=O)c1ncc(N2CCC[C@H](N3CCOC3=O)C2)nc1Nc1ccc(N2CCC(C3CN(c4ccc5c(c4)C(=O)N(C4CCC(=O)NC4=O)C5=O)C3)CC2)cc1 (stereo partly shown) [Compound 70] | 42% | – | – | 3.1 nM | – | – | –
5 | NC(=O)c1ncc(N2CCC[C@@H](N3CCOC3=O)C2)nc1Nc1ccc(C2CCN(C[C@H]3CCN(c4ccc5c(c4)C(=O)N(C4CCC(=O)NC4=O)C5=O)C3)CC2)cc1 (stereo partly shown) [Compound 73] | 26% | 0.004 nM | 25% | 1.2 nM | 0.054 nM | 19% | AUC ([2]; 1 mg/kg IV): 0.6 µM·h; clearance ([2]; 1 mg/kg IV): 33.8 mL/min/kg; Vd ([2]; 1 mg/kg IV): 3.4 L/kg; AUC ([2]; 10 mg/kg PO): 2.9 µM·h; bioavailability ([2]; 10 mg/kg PO): 47%; EC50 ([1]; read-out: CD69 EC50): ~0.2 nM; EC50 ([1]; read-out: CD86 EC50): 0.2 nM
6 | CN1CCN([C@@H]2CCCN(c3cnc(C(N)=O)c(Nc4ccc(C5CCN(CC6CCN(c7ccc8c(c7)C(=O)N(C7CCC(=O)NC7=O)C8=O)CC6)CC5)cc4)n3)C2)C1=O (stereo partly shown) [Compound 51] | – | 0.32 nM | 20% | – | 1.95 nM | 49% | CD25 Staining Anti-CD3/Anti-CD28 Stimulation (primary human T cells [3]; 1.4 nM): 0.86; CD69 Staining Anti-CD3/Anti-CD28 Stimulation (primary human T cells [3]; 1.4 nM): 0.91; CD25 Staining Anti-CD3/Anti-CD28 Stimulation (primary human T cells [3]; 37 nM): 0.62; CD69 Staining Anti-CD3/Anti-CD28 Stimulation (primary human T cells [3]; 37 nM): 0.62; CD25 Staining Anti-CD3/Anti-CD28 Stimulation (primary human T cells [3]; 333 nM): 0.38; CD69 Staining Anti-CD3/Anti-CD28 Stimulation (primary human T cells [3]; 333 nM): 0.39; % BTK Remaining (BTK; oral dose 90 mg/kg, 6 h, splenocytes, HTRF): 2%; IL-2 Secretion Anti-CD3/Anti-CD28 Stimulation (primary human T cells [4]; [7]): 1.19; IL-2 Secretion Anti-CD3/Anti-CD28 Stimulation (primary human T cells [4]; [8]): 1.99; IL-2 Secretion Anti-CD3/Anti-CD28 Stimulation (primary human T cells [4]; [9]): 2.12
7 | CN1CCN([C@@H]2CCCN(c3cnc(C(N)=O)c(Nc4ccc(C5CCN(C6CN(Cc7ccc8c(c7)C(=O)N(C7CCC(=O)NC7=O)C8=O)C6)CC5)cc4)n3)C2)C1=O (stereo partly shown) [Compound 101] | – | 93.4 nM | 27% | 4.3 nM | 431 nM | 27% | –
8 | CN1CCN([C@H]2CCCN(c3cnc(C(N)=O)c(Nc4cnn(C5CCN(CC6CN(c7ccc8c(c7)C(=O)N(C7CCC(=O)NC7=O)C8=O)C6)CC5)c4)n3)C2)C1=O (stereo partly shown) [Compound 78] | – | 9.04 nM | 41% | – | 7.19 nM | 37% | CD25 Staining Anti-CD3/Anti-CD28 Stimulation (primary human T cells [3]; 1.4 nM): 0.99; CD69 Staining Anti-CD3/Anti-CD28 Stimulation (primary human T cells [3]; 1.4 nM): 1.00; CD25 Staining Anti-CD3/Anti-CD28 Stimulation (primary human T cells [3]; 37 nM): 0.73; CD69 Staining Anti-CD3/Anti-CD28 Stimulation (primary human T cells [3]; 37 nM): 0.66; CD25 Staining Anti-CD3/Anti-CD28 Stimulation (primary human T cells [3]; 333 nM): 0.44; CD69 Staining Anti-CD3/Anti-CD28 Stimulation (primary human T cells [3]; 333 nM): 0.43; % BTK Remaining (BTK; oral dose 3 mg/kg, 6 h, blood, flow cytometry): 74%; IL-2 Secretion Anti-CD3/Anti-CD28 Stimulation (primary human T cells [4]; [7]): 1.00; IL-2 Secretion Anti-CD3/Anti-CD28 Stimulation (primary human T cells [4]; [8]): 1.17; IL-2 Secretion Anti-CD3/Anti-CD28 Stimulation (primary human T cells [4]; [9]): 1.20
9 | NC(=O)c1ncc(N2CCCCC2)nc1Nc1ccc(C2CCN(CC3CCN(c4ccc(C(=O)NC5CCC(=O)NC5=O)nc4)CC3)CC2)cc1 (stereo not shown) [Compound 182] | 12% | – | – | 14.5 nM | – | – | –
10 | NC(=O)c1ncc(N2CCCC3(COC3)C2)nc1Nc1ccc(C2CCN(C[C@H]3CCN(c4ccc5c(c4)C(=O)N(C4CCC(=O)NC4=O)C5=O)C3)CC2)cc1 (stereo partly shown) [Compound 126] | – | – | – | 7.7 nM | – | – | % BTK Remaining (BTK; [6]): 33%
11 | NC(=O)c1ncc(N2CCCCC2)nc1Nc1ccc(C2CCN(CC3CCN(c4ccc5c(=O)n(C6CCC(=O)NC6=O)ccc5c4)CC3)CC2)cc1 (stereo not shown) [Compound 133] | – | 6.98 nM | 15% | 8.3 nM | 6.83 nM | 9% | % BTK Remaining (BTK; [6]): 10%
12 | O=C(c1ccc(Oc2ccccc2)cc1Cl)c1c[nH]c2ncnc(N[C@@H]3CC[C@@H](CO)OC3)c12 [ARQ531] | – | 100 nM | 16% | – | 100 nM | 17% | EC50 ([1]; read-out: CD69 EC50): 50 nM; EC50 ([1]; read-out: CD86 EC50): 70 nM
13 | CN1CCN([C@@H]2CCCN(c3cnc(C(N)=O)c(Nc4ccc(C5CCN(CC6CCN(c7ccc(NC8CCC(=O)NC8=O)nc7)CC6)CC5)cc4)n3)C2)C1=O (stereo partly shown) [Compound 166] | 19% | – | – | 8.1 nM | – | – | –
14 | CN1CCN([C@@H]2CCCN(c3cnc(C(N)=O)c(Nc4ccc(C5CN(CC6CCN(c7ccc8c(=O)n(C9CCC(=O)NC9=O)ccc8c7)CC6)C5)cc4)n3)C2)C1=O (stereo partly shown) [Compound 69] | 33% | – | – | 0.8 nM | – | – | % BTK Remaining (BTK; oral dose 0.3 mg/kg, 24 h, blood, flow cytometry): 112%; % BTK Remaining (BTK; oral dose 3 mg/kg, 24 h, blood, flow cytometry): 43%; % BTK Remaining (BTK; [6]): 30%; AUC ([2]; 1 mg/kg IV): 0.68 µM·h; clearance ([2]; 1 mg/kg IV): 31.4 mL/min/kg; Vd ([2]; 1 mg/kg IV): 2.2 L/kg; AUC ([2]; 10 mg/kg PO): 0.078 µM·h; bioavailability ([2]; 10 mg/kg PO): 1%; EC50 ([1]; read-out: CD69 EC50): 0.1 nM; EC50 ([1]; read-out: CD86 EC50): 0.3 nM
